Measured values as given in patent publication US20260376293A1, “METHODS FOR STUDYING GPR158 PHARMACOLOGY AND IDENTIFICATION OF ITS LIGANDS” (UNIVERSITY OF FLORIDA RESEARCH FOUNDATION, INCORPORATED, priority 2022, published 2026).

Tested on: layer II-III pyramidal neurons of GPR158 KO mice
Assay: Whole cell recordings, layer II-III neurons, GPR158 KO mice
Format: cell-based, mouse
Settings: for rheobase current / number of action potentials fired / resting membrane potential: 1 mM, GPR158 KO; for number of action potentials fired: 200 pA current ramp; for resting membrane potential: layer II-III
Method: FIGS. 14A-14H. Effect of glycine on neuronal excitability. A) Schematic of the electrophysiological recordings in slice preparation targeting mPFC neurons of layer II-III. Experiments were conducted with a cocktail of synaptic blockers: picrotoxin (100 μM) (blockade of GABAA receptor chloride channels), strychnine (1 μM) (antagonist of glycine and acetylcholine ionotropic receptors), CNQX (20 μM) (AMPA receptors antagonist), and APV (50 μM) (NMDAR antagonist). B) Representative traces of voltage responses to a 200 pA current ramp injection under control conditions and after bath application of glycine (1 mM) in WT mice. C) Quantification of changes in excitability by number of action potentials fired in response to 200 pA current ramp (n=8 neurons from 5 mice). Nonparametric t-test; Wilcoxon test, **p<0.01. D) Quantification of changes in excitability by rheobase current under control condition and glycine application (n=8 neurons from 5 mice). Nonparametric t-test; Wilcoxon test, **p<0.01. E) Representative traces of voltage responses to a 200 pA current ramp injection obtained from layer II-III pyramidal neurons in GPR158 KO mice under control conditions and during bath application of glycine (1 mM). F) Quantification of changes in excitability by number of action potentials fired in response to 200 pA current ramp (n=4 neurons/3 mice). Nonparametric t-test; Wilcoxon test, ns=p>0.05. G) Quantification of changes in excitability by rheobase current under control condition and glycine application (n=4 neurons/3 mice). Nonparametric t-test; Wilcoxon test, ns=p>0.05. H) Schematic representation of the proposed mechanism of glycine effects on mGlyR. In 14C, 14D, 14F, and 14G, solid circles (Ctrl), circles with no fill (Glycine), columns with no fill (Ctrl), and columns with dotted fill (Glycine).
FIGS. 15A-15H. Effect of glycine and taurine on excitability of layer V neurons and membrane properties of layer II/III neurons in wild type and GPR158 knockout mice. A) Representative traces of voltage responses to a 200 pA current ramp injection obtained from layer V pyramidal neurons in WT mice under control conditions and during bath application of glycine (1 mM). B) Quantification of glycine effects on neuronal excitability by number of action potentials fired in response to 200 pA current ramp under control condition and glycine application (n=4 neurons/3 mice). Nonparametric t-test; Wilcoxon test, ns=p>0.05. C) Quantification of glycine effects on neuronal excitability by rheobase current under control condition and glycine application (n=4 neurons/3 mice). Nonparametric t-test; Wilcoxon test, ns=p>0.05. D) Resting membrane potential of layer V pyramidal neurons in WT mice under control conditions and during bath application of glycine (n=4 neurons/3 mice). Nonparametric t-test; Wilcoxon test, ns=p>0.05. E) Resting membrane potential of layer II-III pyramidal neurons in WT mice under control conditions and during bath application of glycine (n=6 neurons/4 mice). Nonparametric t-test; Wilcoxon test, ns=p>0.05. F) Resting membrane potential of layer II-III pyramidal neurons in GPR158 KO mice under control conditions and during bath application of glycine (n=4 neurons/3 mice). Nonparametric t-test; Wilcoxon test, ns=p>0.05. G) Resting membrane potential under control conditions and during bath application of taurine (n=9 neurons/5 mice). Paired t-test, p=0.4809. H) Resting membrane potential under control conditions and during bath application of taurine (n=5 neurons/4 mice) Nonparametric t-test; Wilcoxon test, ns=p>0.05, p>0.9999. In FIGS. 15B, 15C, 15D, 15E, and 15F, solid circles (Ctrl), circles with angled-line fill (Glycine), columns with no fill (Ctrl), columns with angled-line fill (Glycine). In 15G and 15H, solid circles (Ctrl), circles with no fill (Taurine), columns with no fill (Ctrl), columns with dotted fill (Taurine).
FIGS. 16A-16F Effect of taurine on neuronal excitability of layer II/III neurons. […]

SMILES | rheobase current | number of action potentials fired | resting membrane potential | excitability of layer II-III neurons (Gpr158 KO, glycine 1 mM)
NCC(=O)O [glycine] | ns | ns | ns | failed to alter excitability
NCCS(=O)(=O)O [taurine, 2-aminoethanesulfonic acid] | ns | ns | ns | –
